{"source": "paper PMC9958891", "about": "(2023)", "key": {"[1]": {"tested_on": "5'-FAM-c-myc-TAMRA-3' (c-myc G4 DNA, FRET) (DNA, G4) TGAGGGTGGGTAGGGTGGGTAA", "test": "FRET melting", "details": "K+ 100 mM, Na+ (10 mM Na3AsO4); 10 mM Tris-HCl pH 7.4; 0.2 μM DNA; compound concentration not stated; value per abstract, b23 order differs"}, "[2]": {"tested_on": "c-myc Pu22 (c-myc G4 DNA) (DNA, G4) TGAGGGTGGGTAGGGTGGGTAA", "test": "UV-vis absorption titration", "details": "K+ 100 mM; 10 mM Tris-HCl, pH 7.2, room temperature; 20 μM complex"}}, "data": [{"smiles": "COc1ccc(CCc2cc(OC)c(OC)c(OC)c2)cc1OCCCCn1c(-c2ccc(C(F)(F)F)cc2)nc2c3cccnc3c3ncccc3c21.[Ru+2].c1cnc2c(c1)ccc1cccnc12.c1cnc2c(c1)ccc1cccnc12", "values": [{"measurement": "ΔTm", "setting": "[1]", "result": "~ 16.5 °C"}, {"measurement": "binding constant", "setting": "[2]", "result": "~ 2.05 × 10^7 M^−1"}]}, {"smiles": "COc1ccc(CCc2cc(OC)c(OC)c(OC)c2)cc1OCCCCn1c(-c2ccccc2C(F)(F)F)nc2c3cccnc3c3ncccc3c21.[Ru+2].c1cnc2c(c1)ccc1cccnc12.c1cnc2c(c1)ccc1cccnc12", "values": [{"measurement": "ΔTm", "setting": "[1]", "result": "~ 15.5 °C"}]}]}
